What was measured:
Experiment in all cases: Microbiological challenge testing in BPW broth, graded subculture counts
Type in all cases: cell-based
[1] = test system: Pseudomonas aeruginosa Wild type; details: P. aeruginosa
Protocol: (§1) The microorganisms in the table below were used in challenge tests. They were either ATCC (American Type Culture Collection) or “wild type” as indicated. Wild type organisms were problematic organisms previously isolated from chemical products.
(§2) All of the microorganisms were grown in Tryptose Soy Broth (TSB), DIFCO™ available from Becton, Dickinson and Company, containing 1% dextrose. Candida albicans and Aspergillus niger, were incubated at 22° C.+/−2° C. for at least 96 hours. All bacteria were incubated at 35° C.+/−2° C. in a humidified incubator for at least 96 hours.
(§3) The following procedure was followed to determine the amount of each challenge material (inoculum broth) needed to produce a 10^8 CFU/mL challenge, which is equivalent to a final test-sample microbial concentration of 10^5 to 10^6 CFU/mL (CFU=colony forming units).
(§4) Using a sterile pipette, 1 mL of the growth from each TSB culture was transferred into tubes of 9 mL buffered water (pH 7.2 phosphate buffer) and mixed thoroughly. This was repeated to make serial 1:10 dilutions. Then, 0.1 mL of each sample and dilution was inoculated onto agar plates to produce the equivalent of a further 1:10 dilution. (C. albicans and A. niger were inoculated onto SABD and bacteria were inoculated onto Plate Count Agar (PCA), DIFCO™ available from Becton, Dickinson and Company.) (The normal volume plated for most samples was 0.1 mL. Some samples that could be very low in micro-organisms (high dilutions) were plated using 0.5 mL of inoculum, in order to produce reproducible counts.) The samples were distributed on the plates using the spread-plate technique. The spread-plate technique is carried out by spreading the sample over the entire plate surface using a sterile spreading rod while rotating the plate with a rotary auto-plater. After the inoculum was absorbed completely by the agar, each plate was inverted and incubated (fungi at 22° C.+/−2° C. and bacteria at 35° C.+/−2° C.).
(§5) After incubation for at least 48 hours, colonies that had developed on the agar plates were counted (CFU) and recorded with the corresponding dilution. If counting had to be delayed temporarily, plates were refrigerated, preferably no more than 24 hours, until they could be counted. The number of CFU/mL was determined by multiplying the plate count by the dilution factor of the plate counted.
(§6) Turbidity in Nepholemetric Turbidity Units (NTU) was measured for each serial dilution using the HF-Micro 100 Model Turbidimeter. For each microorganism, the plate counts were compared to the turbidity readings.
(§7) Control substrates (“broth alone”) were prepared for each microorganism separately in triplicate by adding 13.5 mL of Buffered Peptone Water broth (BPW) containing 1% dextrose to each 20-mL glass tube, then adding 1.5 mL challenge material to produce a final concentration at time zero of 10^5 to 10^6 CFU/mL and a total volume of 15 mL.
(§8) Test sample substrates were prepared containing each test material listed below at the concentrations shown for challenge testing with each microorganism separately. Sample substrates were prepared in triplicate, except the substrates containing butoxyethanol which were prepared in duplicate. Substrates were prepared by adding BPW containing 1% dextrose to each 20-mL glass tube, then adding the test material in the amount appropriate to achieve the desired weight/volume percent and to achieve a total volume of BPW plus dextrose plus test material of 13.5 mL. Then 1.5 mL challenge material was added to produce a final concentration at time zero of 10^5 to 10^6 CFU/mL and a total test sample substrate volume of 15 mL.

[2] = test system: Escherichia coli ATCC 25922; details: E. Coli
Protocol: as §1, §2, §3, §4, §5, §6, §7, §8

[3] = test system: Streptococcus mutans ATCC 35668
Protocol: as §1, §2, §3, §4, §5, §6, §7, §8

Aeromonas sp. Wild type = test system: Aeromonas sp. Wild type
Protocol: as §1, §2, §3, §4, §5, §6, §7, §8

`CC(O)CO` (stereo not drawn) [PG, propylene glycol] was tested, and the Grade ([1]; 0.5% (wt/vol), 3 day) was 4 (1000 to 10,000 colonies countable (thus 10,000 CFU/mL to 100,000 CFU/mL)), the Grade ([1]; 0.5% (wt/vol), 13 day) was 4 (1000 to 10,000 colonies countable (thus 10,000 CFU/mL to 100,000 CFU/mL)) and the Grade ([1]; 0.5% (wt/vol), 30 day) was 5 (More than 10,000 colonies estimated (thus more than 100,000 CFU/mL)). For the same compound, the Grade ([1]; 1.25% (wt/vol), 3 day) was 4 (1000 to 10,000 colonies countable (thus 10,000 CFU/mL to 100,000 CFU/mL)), the Grade ([1]; 1.25% (wt/vol), 13 day) was 4 (1000 to 10,000 colonies countable (thus 10,000 CFU/mL to 100,000 CFU/mL)) and the Grade ([1]; 1.25% (wt/vol), 30 day) was 4 (1000 to 10,000 colonies countable (thus 10,000 CFU/mL to 100,000 CFU/mL)). The Grade ([1]; 2.5% (wt/vol), 3 day) was 4 (1000 to 10,000 colonies countable (thus 10,000 CFU/mL to 100,000 CFU/mL)), the Grade ([1]; 2.5% (wt/vol), 13 day) was 4 (1000 to 10,000 colonies countable (thus 10,000 CFU/mL to 100,000 CFU/mL)) and the Grade ([1]; 2.5% (wt/vol), 30 day) was 4 (1000 to 10,000 colonies countable (thus 10,000 CFU/mL to 100,000 CFU/mL)). For the same compound, the Grade ([1]; 5.0% (wt/vol), 3 day) was 4 (1000 to 10,000 colonies countable (thus 10,000 CFU/mL to 100,000 CFU/mL)), the Grade ([1]; 5.0% (wt/vol), 13 day) was 4 (1000 to 10,000 colonies countable (thus 10,000 CFU/mL to 100,000 CFU/mL)) and the Grade ([1]; 5.0% (wt/vol), 30 day) was 4 (1000 to 10,000 colonies countable (thus 10,000 CFU/mL to 100,000 CFU/mL)). For the same compound, the Grade ([2]; 0.5% (wt/vol), 3 day) was 5 (More than 10,000 colonies estimated (thus more than 100,000 CFU/mL)), the Grade ([2]; 0.5% (wt/vol), 14 day) was 5 (More than 10,000 colonies estimated (thus more than 100,000 CFU/mL)) and the Grade ([2]; 0.5% (wt/vol), 30 day) was 5 (More than 10,000 colonies estimated (thus more than 100,000 CFU/mL)). For the same compound, the Grade ([2]; 1.25% (wt/vol), 3 day) was 5 (More than 10,000 colonies estimated (thus more than 100,000 CFU/mL)), the Grade ([2]; 1.25% (wt/vol), 14 day) was 4 (1000 to 10,000 colonies countable (thus 10,000 CFU/mL to 100,000 CFU/mL)) and the Grade ([2]; 1.25% (wt/vol), 30 day) was 4 (1000 to 10,000 colonies countable (thus 10,000 CFU/mL to 100,000 CFU/mL)). For the same compound, the Grade ([2]; 2.5% (wt/vol), 3 day) was 5 (More than 10,000 colonies estimated (thus more than 100,000 CFU/mL)), the Grade ([2]; 2.5% (wt/vol), 14 day) was 4 (1000 to 10,000 colonies countable (thus 10,000 CFU/mL to 100,000 CFU/mL)) and the Grade ([2]; 2.5% (wt/vol), 30 day) was 4 (1000 to 10,000 colonies countable (thus 10,000 CFU/mL to 100,000 CFU/mL)). For the same compound, the Grade ([2]; 5.0% (wt/vol), 3 day) was 4 (1000 to 10,000 colonies countable (thus 10,000 CFU/mL to 100,000 CFU/mL)), the Grade ([2]; 5.0% (wt/vol), 14 day) was 4 (1000 to 10,000 colonies countable (thus 10,000 CFU/mL to 100,000 CFU/mL)) and the Grade ([2]; 5.0% (wt/vol), 30 day) was 4 (1000 to 10,000 colonies countable (thus 10,000 CFU/mL to 100,000 CFU/mL)). The “S. mutans growth grade, 3 day” value ([3]; 0.5% weight/volume) was 5 (More than 10,000 colonies estimated (thus more than 100,000 CFU/mL)), the “S. mutans growth grade, 13 day” value ([3]; 0.5% weight/volume) was 5 (More than 10,000 colonies estimated (thus more than 100,000 CFU/mL)) and the “S. mutans growth grade, 30 day” value ([3]; 0.5% weight/volume) was 5 (More than 10,000 colonies estimated (thus more than 100,000 CFU/mL)). For the same compound, the “S. mutans growth grade, 3 day” value ([3]; 1.25% weight/volume) was 4 (1000 to 10,000 colonies countable (thus 10,000 CFU/mL to 100,000 CFU/mL)), the “S. mutans growth grade, 13 day” value ([3]; 1.25% weight/volume) was 4 (1000 to 10,000 colonies countable (thus 10,000 CFU/mL to 100,000 CFU/mL)) and the “S. mutans growth grade, 30 day” value ([3]; 1.25% weight/volume) was 4 (1000 to 10,000 colonies countable (thus 10,000 CFU/mL to 100,000 CFU/mL)). For the same compound, the “S. mutans growth grade, 3 day” value ([3]; 2.5% weight/volume) was 4 (1000 to 10,000 colonies countable (thus 10,000 CFU/mL to 100,000 CFU/mL)), the “S. mutans growth grade, 13 day” value ([3]; 2.5% weight/volume) was 4 (1000 to 10,000 colonies countable (thus 10,000 CFU/mL to 100,000 CFU/mL)) and the “S. mutans growth grade, 30 day” value ([3]; 2.5% weight/volume) was 4 (1000 to 10,000 colonies countable (thus 10,000 CFU/mL to 100,000 CFU/mL)). The “S. mutans growth grade, 3 day” value ([3]; 5.0% weight/volume) was 4 (1000 to 10,000 colonies countable (thus 10,000 CFU/mL to 100,000 CFU/mL)), the “S. mutans growth grade, 13 day” value ([3]; 5.0% weight/volume) was 4 (1000 to 10,000 colonies countable (thus 10,000 CFU/mL to 100,000 CFU/mL)) and the “S. mutans growth grade, 30 day” value ([3]; 5.0% weight/volume) was 4 (1000 to 10,000 colonies countable (thus 10,000 CFU/mL to 100,000 CFU/mL)). For the same compound, the “Aeromonas sp growth grade, 3 day” value (Aeromonas sp. Wild type; 0.5% weight/volume) was 5 (More than 10,000 colonies estimated (thus more than 100,000 CFU/mL)), the “Aeromonas sp growth grade, 14 day” value (Aeromonas sp. Wild type; 0.5% weight/volume) was 5 (More than 10,000 colonies estimated (thus more than 100,000 CFU/mL)) and the “Aeromonas sp growth grade, 30 day” value (Aeromonas sp. Wild type; 0.5% weight/volume) was 5 (More than 10,000 colonies estimated (thus more than 100,000 CFU/mL)). For the same compound, the “Aeromonas sp growth grade, 3 day” value (Aeromonas sp. Wild type; 1.25% weight/volume) was 5 (More than 10,000 colonies estimated (thus more than 100,000 CFU/mL)), the “Aeromonas sp growth grade, 14 day” value (Aeromonas sp. Wild type; 1.25% weight/volume) was 5 (More than 10,000 colonies estimated (thus more than 100,000 CFU/mL)) and the “Aeromonas sp growth grade, 30 day” value (Aeromonas sp. Wild type; 1.25% weight/volume) was 5 (More than 10,000 colonies estimated (thus more than 100,000 CFU/mL)).
